Reference: US20240124469A1, “PIM KINASE INHIBITOR” (Hangzhou Biosun Pharmaceutical Co., Ltd., priority 2021, published 2024)

Tests used:
PIM1 = PIM1 (Homo sapiens (Human), UniProt P11309); assay: PIM1 kinase activity test (Mobility shift assay); assay type: biochemical
Method: (§1) The efficacy of the compounds on the activity of PIM1/2/3 was tested by utilizing the Mobility shift assay method, with the specific procedures shown as follows: the test compounds were each dissolved in DMSO to be prepared into a 10 mM stock solution; for each of the test compounds, the stock solution was subjected to a 3-fold dilution from an initial concentration of 10 μM to obtain 10 concentrations.
(§2) PIM1, PIM2, and PIM3 (all three kinases are from Carna) were each prepared with 1× Kinase buffer into a kinase solution at a concentration that was 2.5 times the final concentration. 10 μL of kinase solution at a concentration that was 2.5 times the final concentration was added to each of the compound wells and the positive control well, and 10 μL of 1× Kinase buffer was added to the negative control well. The plate was centrifuged at 1000 rpm for 30 s, mixed well by shaking, and then incubated at room temperature for 10 min. A mixed solution of ATP and Kinase substrate 20 (from GL) at a concentration that was 25/15 times the final concentration was prepared with 1× Kinase buffer. The reaction was started by adding 15 μL of the mixed solution of ATP and Kinase substrate 20 at a concentration that was 25/15 times the final concentration. The 384-well plate was centrifuged at 1000 rpm for 30 s, mixed well by shaking, and then incubated at room temperature for 60 min. 30 μL of stop assay buffer was added to stop the kinase reaction. The plate was centrifuged at 1000 rpm for 30 s and mixed well by shaking. The conversion rates were read using Caliper EZ Reader.
(§3) The IC50 values of the test compounds for kinase activity were obtained by adopting a fitted dose-response curve of analytic software GraphPad Prism 5.

PIM2 = PIM2 (Homo sapiens (Human), UniProt Q9P1W9); assay: PIM2 kinase activity test (Mobility shift assay); assay type: biochemical
Chain of PIM2 (Q9P1W9 whole entry): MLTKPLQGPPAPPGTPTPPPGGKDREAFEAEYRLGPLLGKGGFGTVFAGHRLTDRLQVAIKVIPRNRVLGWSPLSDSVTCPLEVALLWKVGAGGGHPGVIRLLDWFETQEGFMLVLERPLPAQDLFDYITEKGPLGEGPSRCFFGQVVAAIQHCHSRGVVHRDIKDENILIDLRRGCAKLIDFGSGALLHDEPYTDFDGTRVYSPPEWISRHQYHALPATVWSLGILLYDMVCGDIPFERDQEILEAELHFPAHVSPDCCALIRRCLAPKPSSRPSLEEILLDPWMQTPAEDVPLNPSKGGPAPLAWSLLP
Method: as §1, §2, §3

PIM3 = PIM3 (Homo sapiens (Human), UniProt Q86V86); assay: PIM3 kinase activity test (Mobility shift assay); assay type: biochemical
Method: as §1, §2, §3

Ba/F3-EPOR-JAK2-V617F = assay: Cell inhibitory activity test (72 h CTG); assay type: cell-based
Method: The EPOR-JAK2-V617F gene was transferred into Ba/F3 wild-type cells by a retrovirus packaging system to obtain a stably transfected cell line Ba/F3-EPOR-JAK2-V617F, which was used for the cell inhibitory activity ICso test of the compounds (reference: Blood. 2010; 115(15): 3109-3117). The specific procedures were as follows: • Cells were seeded in a 96-well plate, treated with the test compounds from DMSO stock solutions (final concentration of DMSO is 0.2%), and cultured at 37° C. with 5% CO2 for 72 h. Then, the cell proliferation inhibitory activity was assayed by the CTG (Cell-Titer Glo) method. For each of the test compounds, the stock solution was subjected to a 3-fold dilution from an initial concentration of 10 μM to obtain 9 concentrations. The dose-response relationship curve was fitted by using Graphpad 7.0 analysis software, and IC50 values were obtained.

Chain of PIM1 (P11309 whole entry): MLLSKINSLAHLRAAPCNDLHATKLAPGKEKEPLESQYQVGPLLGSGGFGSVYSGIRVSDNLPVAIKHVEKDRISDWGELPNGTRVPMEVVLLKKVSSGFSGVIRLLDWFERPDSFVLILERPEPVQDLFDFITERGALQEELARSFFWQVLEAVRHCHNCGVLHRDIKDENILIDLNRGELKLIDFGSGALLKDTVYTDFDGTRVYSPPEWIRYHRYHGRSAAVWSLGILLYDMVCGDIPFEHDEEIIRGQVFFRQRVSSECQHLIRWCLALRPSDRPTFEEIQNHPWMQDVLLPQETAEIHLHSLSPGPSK

Row | SMILES | IC50 (PIM1) [nM] | IC50 (PIM2) [nM] | IC50 (PIM3) [nM] | IC50 (Ba/F3-EPOR-JAK2-V617F) [nM]
1 | FC(F)(F)c1cccc(-c2cnc3ccc(NCC4CC5(CCNC5)C4)nn23)c1 (stereo not drawn) [Compound 18, N-(6-azaspiro[3.4]octan-2-ylmethyl)-3-(3-(trifluoromethyl)phenyl)imidazo[1,2-b]pyridazin-6-amine] | 10 to 100 | 100 to 1000 | 100 to 1000 | –
2 | CC(C)(O)[C@H]1CC[C@H](Nc2ccc3nc(C#N)c(-c4cccc(C(F)(F)F)c4)n3n2)CC1 [Compound 43, 6-(((1r,4r)-4-(2-hydroxypropan-2-yl)cyclohexyl)amino)-3-(3-(trifluoromethyl)phenyl)imidazo[1,2-b] pyridazine-2-carbonitrile] | 100 to 1000 | > 10000 | > 10000 | –
3 | OC[C@H]1CC[C@H](Nc2ccc3ncc(-c4cccc(C(F)(F)F)c4)n3n2)CO1 [Compound 25, [(2R,5S)-5-[[3-[3-(trifluoromethyl)phenyl]imidazo[1,2-b]pyridazin-6-yl]amino]tetrahydropyran-2-yl]methanol] | 100 to 1000 | > 10000 | 1000 to 10000 | –
4 | CC(C)(O)[C@H]1CC[C@H](Nc2ccc3nc(C(=O)O)c(-c4cccc(C(F)(F)F)c4)n3n2)CC1 [Compound 42, 6-(((1r,4r)-4-(2-hydroxypropan-2-yl)cyclohexyl)amino)-3-(3-(trifluoromethyl)phenyl)imidazo[1,2-b]pyridazine-2-carboxylic acid] | 100 to 1000 | > 10000 | 1000 to 10000 | –
5 | FC(F)(F)c1cccc(-c2cnc3ccc(NC4CC5(CCNCC5)C4)nn23)c1 [Compound 16, N-(7-azaspiro[3.5]nonan-2-yl)-3-[3-(trifluoromethyl)phenyl]imidazo[1,2-b]pyridazin-6-amine] | 2 to 10 | 100 to 1000 | 10 to 100 | > 150
6 | CN1CCC(CNc2ccc3ncc(-c4cccc(N(C)C)c4)n3n2)CC1 [Compound 50, 3-(3-(dimethylamino)phenyl)-N-((1-methylpiperidin-4-yl)methyl)imidazo[1,2-b]pyridazin-6-amine] | 100 to 1000 | > 10000 | 1000 to 10000 | –
7 | CC(C)(O)[C@H]1CC[C@H](Nc2ccc3ncc(-c4cccc(-c5ccco5)c4)n3n2)CC1 [Compound 48, 2-((1r,4r)-4-((3-(3-(furan-2-yl)phenyl)imidazo[1,2-b]pyridazin-6-yl)amino)cyclohexyl)propan-2-ol] | 10 to 100 | > 10000 | 100 to 1000 | –
8 | FC(F)(F)c1cccc(-c2cnc3ccc(NCC4CC5(CCNCC5)C4)nn23)c1 [Compound 15, N-(7-azaspiro [3.5]nonan-2-ylmethyl)-3-[3-(trifluoromethyl)phenyl]imidazo[1,2-b]pyridazin-6-amine] | 10 to 100 | 1000 to 10000 | 100 to 1000 | –
9 | OC[C@@H]1CC[C@@H](Nc2ccc3ncc(-c4cccc(C(F)(F)F)c4)n3n2)CO1 [Compound 22, [(2S,5R)-5-[[3-[3-(trifluoromethyl)phenyl]imidazo[1,2-b]pyridazin-6-yl]amino]tetrahydropyran-2-yl]methanol] | 10 to 100 | 1000 to 10000 | 1000 to 10000 | –
10 | CC(C)(O)[C@H]1CC[C@H](Nc2ccc3ncc(-c4nccs4)n3n2)CC1 [Compound 17, 2-[(1r,4r)-4-[(3-thiazol-2-ylimidazo[1,2-b]pyridazin-6-yl)amino]cyclohexyl]propan-2-ol] | 100 to 1000 | 100 to 1000 | 100 to 1000 | –
11 | FC(F)(F)c1cccc(-c2cnc3ccc(NC4CCCNCC4)nn23)c1 (stereo not drawn) [Compound 19, N-(azepan-4-yl)-3-[3-(trifluoromethyl)phenyl]imidazo[1,2-b]pyridazin-6-amine] | 2 to 10 | 100 to 1000 | 10 to 100 | –
12 | O[C@@H]1CCCC[C@@H](Nc2ccc3ncc(-c4cccc(C(F)(F)F)c4)n3n2)C1 [Compound 44, (1R,3R)-3-((3-(3-(trifluoromethyl)phenyl)imidazo[1,2-b]pyridazin-6-yl)amino)cycloheptanol] | 100 to 1000 | > 10000 | > 10000 | –
13 | CN1CCCC(Nc2ccc3ncc(-c4cccc(C(F)(F)F)c4)n3n2)CC1 (stereo not drawn) [Compound 27, N-(1-methylazacycloheptan-4-yl)-3-[3-(trifluoromethyl)phenyl]imidazo[1,2-b]pyridazin-6-amine] | 10 to 100 | 100 to 1000 | 100 to 1000 | –
14 | O[C@H]1CCC[C@@H](Nc2ccc3ncc(-c4cccc(C(F)(F)F)c4)n3n2)CC1 (relative stereo) [Compound 23, cis-4-[[3-[3-(trifluoromethyl)phenyl]imidazo[1,2-b]pyridazin-6-yl]amino]cycloheptanol] | 100 to 1000 | > 10000 | 1000 to 10000 | –
15 | FC(F)(F)c1ccc(-c2cnc3ccc(NC4CC5(CCNCC5)C4)nn23)s1 [Compound 31, N-(7-azaspiro[3.5]nonan-2-yl)-3-[5-(trifluoromethyl)-2-thienyl]imidazo[1,2-b]pyridazin-6-amine] | < 2 | 100 to 1000 | 10 to 100 | 50 to 100
16 | OC[C@H]1CC[C@H](Nc2ccc3ncc(-c4ccc(C(F)(F)F)s4)n3n2)CO1 [Compound 47, [(2R,5S)-5-[[3-[5-(trifluoromethyl)-2-thienyl]imidazo[1,2-b]pyridazin-6-yl]amino]tetrahydropyran-2-yl]methanol] | 10 to 100 | > 10000 | 1000 to 10000 | –
17 | O[C@@H]1CCC[C@@H](Nc2ccc3ncc(-c4cccc(C(F)(F)F)c4)n3n2)CC1 [Compound 45, (1R,4R)-4-((3-(3-(trifluoromethyl)phenyl)imidazo[1,2-b]pyridazin-6-yl)amino)cycloheptanol] | 10 to 100 | 1000 to 10000 | 1000 to 10000 | –
18 | CN1CCC2(CC1)CC(Nc1ccc3ncc(-c4cccc(C(F)(F)F)c4)n3n1)C2 [Compound 26, N-(7-methyl-7-azaspiro[3.5]nonan-2-yl)-3-(3-(trifluoromethyl)phenyl)imidazo[1,2-b]pyridazin-6-amine] | 10 to 100 | 1000 to 10000 | 100 to 1000 | –
19 | CC(C)(O)[C@H]1CC[C@H](Nc2ccc3ncc(-c4cccc(S(C)(=O)=O)c4)n3n2)CC1 [Compound 51, 2-[(1r,4r)-4-[[3-(3-methylsulfonylphenyl)imidazo[1,2-b]pyridazin-6-yl]amino]cyclohexyl]propan-2-ol] | 100 to 1000 | 1000 to 10000 | > 10000 | –
20 | CC(C)(O)[C@H]1CC[C@H](Nc2ccc3ncc(-c4cccs4)n3n2)CC1 [Compound 14, 2-[(1r,4r)-4-[[3-(2-thienyl)imidazo[1,2-b]pyridazin-6-yl]amino]cyclohexyl]propan-2-ol] | 10 to 100 | 100 to 1000 | 100 to 1000 | –
21 | FC(F)(F)c1ccc(-c2cnc3ccc(NC4CCCNCC4)nn23)s1 (stereo not drawn) [Compound 28, N-(azepan-4-yl)-3-[5-(trifluoromethyl)-2-thienyl] imidazo[1,2-b] pyrid azin-6-amine] | < 2 | 100 to 1000 | 10 to 100 | 50 to 100
22 | FC(F)(F)c1cccc(-c2cnc3ccc(NC4CC5(CCNC5)C4)nn23)c1 (stereo not drawn) [Compound 24, N-(6-azaspiro [3.4]octan-2-yl)-3-(3-(trifluoromethyl)phenyl)imidazo[1,2-b]pyridazin-6-amine] | 100 to 1000 | 1000 to 10000 | 100 to 1000 | –
23 | O[C@H]1CCCC[C@@H](Nc2ccc3ncc(-c4cccc(C(F)(F)F)c4)n3n2)C1 [Compound 21, (1S,3R)-3-[[3-[3-(trifluoromethyl)phenyl]imidazo[1,2-b]pyridazin-6-yl]amino]cycloheptanol] | 100 to 1000 | 1000 to 10000 | 1000 to 10000 | –
24 | FC(F)(F)c1cccc(-c2cnc3ccc(NC4CC5(CCN(C6CC6)CC5)C4)nn23)c1 [Compound 30, N-(7-cyclopropyl-7-azaspiro [3.5]nonan-2-yl)-3-(3-(trifluoromethyl)phenyl)imidazo[1,2-b]pyridazin-6-amine] | 10 to 100 | > 10000 | 1000 to 10000 | –
